Results taken from ChEMBL document CHEMBL1201862, “PubChem BioAssay data set” (2004).
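Step 1: Grow cells in 96-well plates. Step 2: Expose to compound for 48 hours at 5 concentrations. Step 3: Interpolate endpoints linearly; if unreached, use highest concentration. Abbreviation: GI50, concentration required for 50% inhibition of growth.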 Active and inactive are the calls of the source. Cut-off read from the data, not from the text of the source: active = GI50 up to about 1.1 µM and inactive = higher.

Key:
Assay in all cases: inhibition of tumour cell growth, NCI panel, 48 h
DLD-1 = tested on: DLD-1
DMS-114 = tested on: DMS-114
DMS-273 = tested on: DMS-273
HOP-18 = tested on: HOP-18
KM-20L2 = tested on: KM-20L2
LXFL 529 = tested on: LXFL 529
M19-MEL = tested on: M19-MEL
RXF 631 = tested on: RXF 631
XF498 = tested on: XF498

Measured: GI50

O=S1(=O)CS(=O)(=O)OCCO1
inactive: DLD-1 54.7 µM | DMS-114 37.5 µM | DMS-273 51.1 µM | HOP-18 > 100 µM | KM-20L2 76.6 µM | LXFL 529 > 100 µM | M19-MEL 48.8 µM | RXF 631 47.8 µM | XF498 15 µM

O=Cc1ccc(-c2cccs2)s1
inactive: DLD-1 > 63.1 µM | DMS-114 > 90.8 µM | DMS-273 > 100 µM | HOP-18 > 62.8 µM | KM-20L2 47.9 µM | LXFL 529 1.76 µM | M19-MEL > 100 µM | RXF 631 5.08 µM | XF498 4.33 µM
